Data taken from the NIST ThermoML archive (doi:10.1016/j.tca.2014.07.018).
Several values for one entry are separate records, joined by “and”; a condition that tells them apart may be missing. Equal values may be shown once.

Assays:
[1] = Crystal; for molar entropy / mass density: 101.33 kPa; for molar entropy: Small (less than 1 g) adiabatic calorimetry; for vapor or sublimation pressure: Calculated from knudsen effusion weight loss
[2] = molar heat capacity at constant pressure; conditions: 101.33 kPa, Crystal, Small (less than 1 g) adiabatic calorimetry

C1C2CC3CC1CC(c1nnn[nH]1)(C2)C3 [5-(1-adamantyl)tetrazole]
Conditions	Normal melting temperature [°C]	molar entropy [J/K/mol]	molar heat capacity at constant pressure [J/K/mol]	vapor or sublimation pressure
[1], 5 K	–	0.1627	–	–
[1], 10 K	–	1.359	–	–
[1], 15 K	–	4.002	–	–
[1], 20 K	–	7.655	–	–
[1], 25 K	–	11.89	–	–
[1], 30 K	–	16.44	–	–
[1], 35 K	–	21.13	–	–
[1], 40 K	–	25.84	–	–
[1], 45 K	–	30.53	–	–
[1], 50 K	–	35.17	–	–
[1], 60 K	–	44.22	–	–
[1], 70 K	–	52.95	–	–
[1], 80 K	–	61.41	–	–
[1], 90 K	–	69.64	–	–
[1], 100 K	–	77.69	–	–
[1], 120 K	–	93.37	–	–
[1], 140 K	–	108.7	–	–
[1], 160 K	–	123.8	–	–
[1], 180 K	–	138.9	–	–
[1], 200 K	–	154	–	–
[1], 220 K	–	169.4	–	–
[1], 240 K	–	185	–	–
[1], 260 K	–	200.8	–	–
[1], 280 K	–	216.8	–	–
[1], 298.15 K	–	231.5	–	–
[1], 300 K	–	232.9	–	–
[1], 320 K	–	249	–	–
[1], 340 K	–	265	–	–
[1], 360 K	–	281	–	–
[1], 370 K	–	289	–	–
[1], 393.68 K	–	–	–	5.34e-05 kPa
[1], 398.71 K	–	–	–	8.43e-05 kPa and 8.47e-05 kPa
[1], 403.71 K	–	–	–	0.0001344 kPa
[1], 403.72 K	–	–	–	0.0001377 kPa
[1], 403.74 K	–	–	–	0.0001377 kPa
[1], 408.72 K	–	–	–	0.0002136 kPa and 0.0002121 kPa
[1], 408.74 K	–	–	–	0.0002167 kPa
[1], 413.74 K	–	–	–	0.0003204 kPa
[1], 413.75 K	–	–	–	0.0003212 kPa
[1], 413.76 K	–	–	–	0.0003363 kPa
[1], 418.74 K	–	–	–	0.0005125 kPa
[1], 418.77 K	–	–	–	0.0005047 kPa
[1], 418.8 K	–	–	–	0.000516 kPa
[1], visual observation	251.00	–	–	–
[2], 5 K	–	–	0.4912	–
[2], 10 K	–	–	3.942	–
[2], 15 K	–	–	9.695	–
[2], 20 K	–	–	16.01	–
[2], 25 K	–	–	22.15	–
[2], 30 K	–	–	27.84	–
[2], 35 K	–	–	32.99	–
[2], 40 K	–	–	37.67	–
[2], 45 K	–	–	42	–
[2], 50 K	–	–	46.01	–
[2], 60 K	–	–	53.34	–
[2], 70 K	–	–	60.13	–
[2], 80 K	–	–	66.67	–
[2], 90 K	–	–	73.18	–
[2], 100 K	–	–	79.7	–
[2], 120 K	–	–	92.76	–
[2], 140 K	–	–	106.3	–
[2], 160 K	–	–	120.6	–
[2], 180 K	–	–	136	–
[2], 200 K	–	–	152.5	–
[2], 220 K	–	–	170	–
[2], 240 K	–	–	188.4	–
[2], 260 K	–	–	207.4	–
[2], 280 K	–	–	225.3	–
[2], 298.15 K	–	–	240	–
[2], 300 K	–	–	241.6	–
[2], 320 K	–	–	256.9	–
[2], 340 K	–	–	272	–
[2], 360 K	–	–	287.6	–
[2], 370 K	–	–	295.6	–

[1]
Conditions	mass density [kg/m3]
100 K, X-ray diffraction	1308
292.15 K, Pycnometric method	1470
